Data on three molecules can be found in US20080108702A1, “Use of Acetyl-Leucine for Preparing a Drug for Treating Balance Disorders” (priority 2005, published 2008).

The test system of experiment [1] is patients with an indication for acoustic neurinoma excision or for vestibular neurotomy. Put plainly: Ability to maintain a standing position eight days following neurotomy (randomized, placebo-controlled). The class given is in vivo, human. How it is done:
Sixty patients with an indication for acoustic neurinoma excision or for vestibular neurotomy were included and randomized. Patients were treated for 60 days either with Tanganil® (six injections of two 500 mg vials by IV route, with an interval of 12 hours between injections, the first taking place one hour after the surgery, followed by an oral treatment at a dose of two 500 mg tablets, one in the morning and one in the evening) or with a placebo.
Vestibular deficit was measured according to the methods described in Vertigo and the practitioner [Les vertiges et le praticien] by P. Tran Ba Huy and C. De Waele (Coll Pathologie Sciences Formation [in French], Ed. John Libbey Eurotext, Paris, 1996) and in Vertigo [Les vertiges] by G. Rancurel, O. Sterkers, E. Vitte, foreword by G. Freyss (Ed. Méd. Spécia. [in French], 1989).
Vestibular reflex was tested at day zero (D0) before neurotomy by caloric testing to objectivize vestibular hyporeflexia or areflexia. This test consists of successively irrigating with warm water then cold the right external auditory meatus then the left, causing in the semicircular canal an endolymph current which moves the ampullary crest. Caloric response is expressed by the appearance of a nystagmus that beats toward the side of the stimulated ear when warm water is applied and toward the opposite side when cold water is applied. The nystagmic response was recorded by video nystagmography and its frequency calculated, i.e., the number of nystagmic beats occurring between the 60th and 90th seconds following the initiation of stimulation. This number quantifies the vestibular response.
The difference in responses between one ear and the other expresses so-called hypovalence, i.e., the difference between the warm and cold responses on the left side and the warm and cold responses on the right side, divided by the total number of responses. In normal subjects, hypovalence is less than 15%. Hypovalence is the main sign of damage to the peripheral vestibular apparatus.
The principle criterion was “able to maintain a standing position at D8” (Yes/No)

For experiment [2] the test system is unchanged. Description: Symptoms (vertigo and vomiting) rated by patients on 10 cm visual analog scales (VAS). The experiment is classed as in vivo, human. How it is done: Sixty patients with an indication for acoustic neurinoma excision or for vestibular neurotomy were included and randomized. Patients were treated for 60 days either with Tanganil® (six injections of two 500 mg vials by IV route, with an interval of 12 hours between injections, the first taking place one hour after the surgery, followed by an oral treatment at a dose of two 500 mg tablets, one in the morning and one in the evening) or with a placebo. Subjective signs (vertigo and vomiting) were rated by patients on a 10 cm VAS from “absent” to “highly incapacitating”.

Experiment [3] shares this test system. Description: Balance evaluated by static posturography. The class given is in vivo, human. How it is done: Sixty patients with an indication for acoustic neurinoma excision or for vestibular neurotomy were included and randomized. Patients were treated for 60 days either with Tanganil® (six injections of two 500 mg vials by IV route, with an interval of 12 hours between injections, the first taking place one hour after the surgery, followed by an oral treatment at a dose of two 500 mg tablets, one in the morning and one in the evening) or with a placebo. Static posturography (not performed at D8 if the subject could not remain standing) was carried out in a standing position under four conditions (eyes open or closed, with or without foam carpeting). With foam carpeting and/or eyes closed, patients are placed under conditions which minimize the role of visual and proprioceptive information. Shifts in a subject's center of gravity during a given time period are recorded in a statokinesigram. This plot makes it possible to study oscillation amplitudes and surface areas. “Anteroposterior” oscillations can be separated from “right-left” oscillations.

The subject of the next experiment is vertigo symptomatology. The note with it: clinical results reported by various authors; cited from earlier work.
Experiment [4] deals with guinea pig after unilateral labyrinthectomy. Particulars: cited from earlier work.
The test system of experiment [5] is cats having undergone vestibular neurotomy. Particulars: oral route, 28 mg per kg per day; cats after vestibular neurotomy; cited from earlier work.
Experiment [6] relates to mouse median vestibular neurons (MVN). Description: Electrophysiological study in current clamp mode on median vestibular neurons. The experiment is classed as cell-based. The note with it: for effect on action potentials of depolarized neurons: depolarized neurons (approximately −35 mV), after several minutes of application; for Membrane potential: hyperpolarized neurons (approximately −70 mV); for Action potential frequency / Action potential height / Depolarization threshold / Resting potential: neurons spontaneously active at the resting potential. As to the method: An electrophysiological study was conducted on mouse median vestibular neurons (MVN) in which the membrane potential was artificially maintained at various resting values. In this study, the effects of the D and L enantiomers of acetyl-leucine (1 mM) were tested on the membrane properties of neurons in “current clamp” mode at various membrane potential values: normal membrane potential (approximately −45 mV), potential maintained at a hyperpolarized level of approximately −70 mV or potential maintained at a depolarized level of approximately −35 mV.

In experiment [7] the test system is surgical unilateral neurotomy model in the cat. Description: Surgical unilateral neurotomy model (preliminary tests). The experiment is classed as in vivo.

On to `CC(=O)N[C@@H](CC(C)C)C(=O)O` (racemic) [Tanganil®, acetyl-leucine], for which the “difference between the two treatment groups, able to maintain a standing position at D8” value in experiment [1] (25 patients whose vestibular deficit was greater than 75%) is given as “no significant difference”; in experiment [1] (31 patients whose vestibular deficit was less than or equal to 75%, χ^2=0.048) it was “statistically significant difference”. Also, the “effect on compensation after neurotomy” value was “no effect” in experiment [1] (patient population exhibiting no vestibular functioning before neurotomy) and “accelerates the compensation” in experiment [1] (patients exhibiting residual vestibular functioning). The “difference between Tanganil and placebo, able to maintain a standing position at D8” value in experiment [1] (principle analysis of 49 patients) is recorded as “no statistically significant difference”. The “patients able to maintain a standing position at D8” value in experiment [1] (principle analysis of 49 patients, 13 of 22 patients given Tanganil, IV then oral treatment) is 59.1%; in experiment [1] (subgroup with vestibular deficit less than or equal to 75%, 12 of 16 patients), 75%. Moreover, in experiment [2] (D8, vestibular deficit less than or equal to 75%), the “average change on the vertigo VAS” value is reported as −23.5 mm. The “difference vs placebo on vertigo VAS” value was “statistically significant difference” in experiment [2] (D8, vestibular deficit less than or equal to 75%, Wilcoxon test p=0.037) and “no significant difference” in experiment [2] (vestibular deficit greater than 75%, Wilcoxon test p=0.154). Further, in experiment [2] (vestibular deficit greater than 75%), the “difference vs placebo on vomiting VAS” value is recorded as “No significant difference”. The “effect on vomiting VAS vs placebo” value in experiment [2] (vestibular deficit less than or equal to 75%, significant difference between the two groups) was “reduction in vomiting severity”. Also, the “static posturography, difference vs placebo” value in experiment [3] (D8, vestibular deficit greater than 75%, eyes open or closed and/or with or without foam) was “either no significant difference was observed between Tanganil® and the placebo or a significant difference was observed between the two groups in favor of the placebo”; in experiment [3] (vestibular deficit less than or equal to 75%, regardless of experimental conditions), “significant difference between treatment groups in favor of Tanganil®”. The “right/left posturography (postural oscillations)” value in experiment [3] (D8, vestibular deficit less than or equal to 75%, with foam, eyes open, p=0.034 vs placebo) is reported as “+7.9 mm”; in experiment [3] (vestibular deficit less than or equal to 75%, with foam, eyes closed, p=0.016 vs placebo) it was “+5.4 mm”; in experiment [3] (vestibular deficit less than or equal to 75%, without foam, eyes closed, p=0.028 vs placebo), “+2.8 mm”. Also, the “right/left posturography, difference vs placebo” value in experiment [3] (D8, without foam, eyes open test) is given as “no significant difference”. The “cases with improvement in vertigo symptomatology, including the disappearance of vertigo attacks” value in the experiment on vertigo symptomatology is on record as “more than 95%”. Also, the “effect on vestibular compensation” value in experiment [4] (after unilateral labyrinthectomy in the guinea pig) is “accelerate vestibular compensation”. Moreover, the “effect on normal vestibular functioning” value in experiment [4] (guinea pig) was “no effect”. Also, the “effect on recovery of locomotor equilibrium” value in experiment [5] was “facilitates the recovery of locomotor equilibrium”.

Take `CC(=O)N[C@H](CC(C)C)C(=O)O` [Acetyl-D-leucine]: the “effect on action potentials of depolarized neurons” value in experiment [6] (1 mM) was “action potentials stop due to blocking of the membrane potential at a more depolarized level”. In experiment [6] (before application (baseline)), this molecule yielded a Membrane potential of −72.2 ± 5.2 mV, an Action potential frequency of 11.5 ± 6.8 Hz, an Action potential height of 59.0 ± 7.7 mV and a Depolarization threshold of −28.1 ± 4.5 mV. For the same molecule, the Resting potential in experiment [6] (before application (baseline)) is −42.7 ± 3.6 mV. In experiment [6] (during application, 1 mM), this molecule gave a Membrane potential of −67.2 ± 4.6 mV, an Action potential frequency of 8.9 ± 7.7 Hz, an Action potential height of 50.7 ± 17.3 mV and a Depolarization threshold of −27.0 ± 10.2 mV. Also, the Resting potential in experiment [6] (during application, 1 mM) is listed as −42.0 ± 3.6 mV. The “effect on the membrane potential of hyperpolarized neurons” value in experiment [6] (hyperpolarized neurons, 1 mM) is on record as “significantly increases”. Further, the “activity in surgical unilateral neurotomy model” value in experiment [7] is “active”.

Consider `CC(=O)N[C@@H](CC(C)C)C(=O)O` [Acetyl-L-leucine], for which the “effect on action potentials of depolarized neurons” value in experiment [6] (1 mM) was “not observed”. In experiment [6] (before application (baseline)), the Membrane potential is −70.0 ± 2.1 mV, the Action potential frequency is listed as 14.1 ± 9.0 Hz, the Action potential height is 59.0 ± 7.3 mV and the Depolarization threshold is −30.4 ± 5.6 mV. The molecule also showed a Resting potential in experiment [6] (before application (baseline)) of −44.5 ± 2.1 mV. In experiment [6] (during application, 1 mM), this molecule displayed a Membrane potential of −71.6 ± 3.2 mV, an Action potential frequency of 12.4 ± 7.8 Hz, an Action potential height of 49.8 ± 11.4 mV and a Depolarization threshold of −27.7 ± 8.4 mV. Moreover, the Resting potential in experiment [6] (during application, 1 mM) is listed as −42.7 ± 3.7 mV. In experiment [7], the “activity in surgical unilateral neurotomy model” value was “active”.
